According to article PMC10207715, “Dual inhibition of IDO1/TDO2 enhances anti-tumor immunity in platinum-resistant non-small cell lung cancer” (Cancer & Metabolism, 2023):

Key:
[1] = target: T1, tryptophan 2,3-dioxygenase-2 (TDO2) (Homo sapiens, UniProt P48775); test: cellular kynurenine colorimetric assay in GL261-hTDO2 cells, […] h; type: cell-based
T1 construct: full-length human TDO2, overexpressed in GL261 cells

[2] = target: T2, indoleamine 2,3-dioxygenase-1 (IDO1) (Homo sapiens, UniProt P14902); test: cellular kynurenine colorimetric assay in LLC-hIDO1 cells, […] h; type: cell-based
T2 construct: human IDO1 in expression vector F279-V5/hIDO1, stably transfected in LLC cells
T2 sequence (P14902 whole entry): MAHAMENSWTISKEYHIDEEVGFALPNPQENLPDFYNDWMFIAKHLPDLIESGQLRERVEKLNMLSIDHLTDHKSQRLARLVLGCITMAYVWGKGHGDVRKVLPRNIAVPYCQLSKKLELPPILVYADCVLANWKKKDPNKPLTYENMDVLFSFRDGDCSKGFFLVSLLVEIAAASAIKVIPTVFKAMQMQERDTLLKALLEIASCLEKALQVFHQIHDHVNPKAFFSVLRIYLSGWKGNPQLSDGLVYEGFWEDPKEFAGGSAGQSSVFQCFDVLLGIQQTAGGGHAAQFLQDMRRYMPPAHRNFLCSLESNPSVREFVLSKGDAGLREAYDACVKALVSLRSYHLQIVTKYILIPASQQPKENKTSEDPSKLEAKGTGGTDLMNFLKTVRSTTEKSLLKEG

T1 sequence (P48775 whole entry): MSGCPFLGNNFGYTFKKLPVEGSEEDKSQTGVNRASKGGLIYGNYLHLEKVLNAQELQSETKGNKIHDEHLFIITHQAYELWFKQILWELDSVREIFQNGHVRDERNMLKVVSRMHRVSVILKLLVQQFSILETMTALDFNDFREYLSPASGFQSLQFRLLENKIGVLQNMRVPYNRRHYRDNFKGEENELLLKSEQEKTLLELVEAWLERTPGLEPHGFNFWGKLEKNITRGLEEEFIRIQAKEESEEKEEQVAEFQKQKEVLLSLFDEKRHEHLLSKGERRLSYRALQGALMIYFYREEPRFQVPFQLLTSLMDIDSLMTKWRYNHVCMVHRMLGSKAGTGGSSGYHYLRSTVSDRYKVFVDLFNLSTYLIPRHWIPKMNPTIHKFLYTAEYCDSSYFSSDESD

With AT-0174 the IC50 [1] was 250 nM and the IC50 [2] was 170 nM.
